Like-named read-outs stand apart in the source and are kept apart here.
Experiments:
[1] = Comparative dog plasma PK of Int 1-4 versus gemcitabine (study k); format: in vivo; conditions: male beagle dog; for AUC(0-inf): read-out: AUC0-inf; for MRT inf: read-out: MRT0-inf; for MRT last: read-out: MRT0-last; for Vd: read-out: Vdss
Procedure: Objectives: to compare the plasma pharmacokinetics and stability of Int-4 in plasma following single intravenous infusion administration of Int 1-4 at 5 mg/kg and 10 mg/kg versus gemcitabine at 5 mg/kg in the male Beagle dog

[2] = Comparative PK of Int 1-4 versus gemcitabine in rat plasma (study i); format: in vivo, Sprague-Dawley rats; conditions: Sprague-Dawley rat
Text: PK measurements: compare PK parameters C0, CL, Vdss, Cmax, tmax, t1/2, AUC(0-t), AUC(0-inf), MRT(0-t), MRT(0-inf) for Int 1-4 and gemcitabine.

[3] = Compound 1 and gemcitabine plasma PK in the male cynomolgus monkey (study h); format: in vivo; conditions: plasma, after iv Compound 1 5 mg/kg
Procedure: Objectives: to compare the plasma pharmacokinetics and stability of the Compound 1 with Int 1-4 and in plasma following a single intravenous infusion administration of Compound 1 at 5 mg/kg and 10 mg/kg with equimolar gemcitabine at 2.28 mg/kg in male cynomolgous monkeys.
PK measurements: compare PK parameters C0, CL, Vdss, Cmax, tmax, t1/2, AUC(0-t), AUC(0-inf), MRT(0-t), MRT(0-inf) for Compound 1 and Int 1-4 with gemcitabine.

[4] = Comparative plasma PK of Int 1-4 versus gemcitabine in mouse (study a); format: in vivo; conditions: CD-1 mice
[5] = Comparative plasma PK of Compound 1 versus Int 1-4 in male CD-1 mice (study b); format: in vivo; conditions: male, CD-1, mouse, iv; for Cmax: read-out: Cmax; for Tmax: read-out: Tmax
Procedure: Objectives: to compare the plasma pharmacokinetics and stability of Compound 1 with its non-phosphorylated SMDC analog (Int 1-4) and in plasma following a single intravenous infusion administration of Compound 1 at 11.6 mg/kg and 23.2 mg/kg with Int 1-4 (formulation F1 & F2) at 10.0 mg/kg in male CD-1 mice
PK measurements: compare PK parameters C0, CL, Vdss, Cmax, tmax, t1/2, AUC(0-t), AUC(0-inf), MRT(0-t), MRT(0-inf) for Compound 1 and Int 1-4

[6] = Int 1-4 and gemcitabine comparative PK in male cynomolgus monkey (study g); format: in vivo; conditions: for AUC(0-t) / C0 / clearance / half-life / AUC(0-inf) / MRT inf / MRT last / Vd: plasma, male cynomolgus monkey; for AUC(0-inf): read-out: AUC0-inf; for MRT inf: read-out: MRT0-inf; for MRT last: read-out: MRT0-last; for Vd: read-out: Vdss
Procedure: Objectives: to compare the plasma pharmacokinetics and stability of Int 1-4 versus gemcitabine in plasma following single intravenous infusion administration of Int 1-4 at 5 mg/kg and 10 mg/kg with equimolar gemcitabine at 2.65 mg/kg and 5.29 mg/kg in male cynomolgous monkeys
PK measurements: compare PK parameters C0, CL, Vdss, Cmax, tmax, t1/2, AUC(0-t), AUC(0-inf), MRT(0-t), MRT(0-inf) for Int 1-4 with gemcitabine

[7] = after iv Int 1-4 5 mg/kg (study k)
[8] = after iv Int 1-4 10 mg/kg (study k)
[9] = plasma, after iv Int 1-4 10.0 mg/kg
[10] = mouse, plasma, after iv Int 1-4 9.4 mg/kg
[11] = 10 mg/kg, after iv Int 1-4 10.0 mg/kg, Formulation 1
[12] = 10 mg/kg, after iv Int 1-4 10.0 mg/kg, Formulation 2
[13] = 11.6 mg/kg, after iv Compound 1 11.6 mg/kg
[14] = 23.2 mg/kg, after iv Compound 1 23.2 mg/kg
[15] = after iv Int 1-4 5 mg/kg (study g)
[16] = after iv Int 1-4 10 mg/kg (study g)

AUC(0-t) [1, 7]: 2700 ng·h/mL | C0 [1, 7]: 40000 ng/mL | clearance [1, 7]: 30.8 mL/min/kg | half-life [1, 7]: 15 min | AUC(0-inf) [1, 7]: 2730 ng·h/mL | Cmax ([1]; after iv Int 1-4 5 mg/kg (study k), read-out: Cmax): 30500 ng/mL | MRT inf [1, 7]: 7.2 min | MRT last [1, 7]: 6.6 min | Vd [1, 7]: 0.23 L/kg | AUC(0-t) [1, 8]: 7930 ng·h/mL | C0 [1, 8]: 90900 ng/mL | clearance [1, 8]: 43.3 mL/min/kg | half-life [1, 8]: 31.2 min | AUC(0-inf) [1, 8]: 7940 ng·h/mL | MRT inf [1, 8]: 13.8 min | MRT last [1, 8]: 13.2 min | Vd [1, 8]: 0.58 L/kg | stability in the rat (based on Cmax and AUC of free gemcitabine in plasma) ([2]; iv Int 1-4): unstable | half-life ([2]; Sprague-Dawley, rat, plasma, iv, 10 mg/kg, plasma, after iv Int 1-4 10.0 mg/kg): 19.1 min | AUC0-inf/AUC0-last [2, 9]: 101% | AUC(0-inf) [2, 9]: 2010 ng·h/mL | AUC(0-t) [2, 9]: 1990 ng·h/mL | C0 [2, 9]: 29400 ng/mL | clearance [2, 9]: 82.3 mL/min/kg | MRT inf ([2]; plasma, after iv Int 1-4 10.0 mg/kg, read-out: MRT0-inf): 11.1 min | MRT last ([2]; plasma, after iv Int 1-4 10.0 mg/kg, read-out: MRT0-last): 10.3 min | Vd ([2]; plasma, after iv Int 1-4 10.0 mg/kg, read-out: Vdss): 0.905 L/kg | AUC(0-t) [3]: 4380 ng·h/mL | half-life [3]: 45.6 min | AUC(0-inf) ([3]; read-out: AUC0-inf): 4400 ng·h/mL | MRT inf ([3]; read-out: MRT0-inf): 22.2 min | MRT last ([3]; read-out: MRT0-last): 21.6 min | plasma clearance and tissue uptake ([4]; after iv Int 1-4): quickly clears the plasma | AUC(0-t) [4, 10]: 4980 ng·h/mL | C0 [4, 10]: 78000 ng/mL | clearance [4, 10]: 27.1 mL/min/kg | half-life [4, 10]: 63.6 min | AUC(0-inf) ([4]; mouse, plasma, after iv Int 1-4 9.4 mg/kg, read-out: AUC0-inf): 5000 ng·h/mL | MRT inf ([4]; mouse, plasma, after iv Int 1-4 9.4 mg/kg, read-out: MRT0-inf): 20.8 min | MRT last ([4]; mouse, plasma, after iv Int 1-4 9.4 mg/kg, read-out: MRT0-last): 19.7 min | Vd ([4]; mouse, plasma, after iv Int 1-4 9.4 mg/kg, read-out: Vdss): 0.566 L/kg | AUC0-inf/AUC0-last ([4]; plasma, after iv Int 1-4 9.4 mg/kg): 100% | AUC(0-t) [5, 11]: 3620 ng·h/mL | C0 [5, 11]: 33800 ng/mL | clearance [5, 11]: 48.3 mL/min/kg | half-life [5, 11]: 70.8 min | AUC(0-inf) ([5]; 10 mg/kg, after iv Int 1-4 10.0 mg/kg, Formulation 1, read-out: AUC0-inf): 3630 ng·h/mL | MRT inf ([5]; 10 mg/kg, after iv Int 1-4 10.0 mg/kg, Formulation 1, read-out: MRT0-inf): 45.4 min | MRT last ([5]; 10 mg/kg, after iv Int 1-4 10.0 mg/kg, Formulation 1, read-out: MRT0-last): 43.4 min | Vd ([5]; 10 mg/kg, after iv Int 1-4 10.0 mg/kg, Formulation 1, read-out: Vdss): 2.01 L/kg | AUC(0-t) [5, 12]: 4210 ng·h/mL | C0 [5, 12]: 43000 ng/mL | clearance [5, 12]: 38.9 mL/min/kg | half-life [5, 12]: 109 min | AUC(0-inf) ([5]; 10 mg/kg, after iv Int 1-4 10.0 mg/kg, Formulation 2, read-out: AUC0-inf): 4290 ng·h/mL | MRT inf ([5]; 10 mg/kg, after iv Int 1-4 10.0 mg/kg, Formulation 2, read-out: MRT0-inf): 59 min | MRT last ([5]; 10 mg/kg, after iv Int 1-4 10.0 mg/kg, Formulation 2, read-out: MRT0-last): 47.8 min | Vd ([5]; 10 mg/kg, after iv Int 1-4 10.0 mg/kg, Formulation 2, read-out: Vdss): 2.3 L/kg | AUC(0-t) [5, 13]: 2570 ng·h/mL | half-life [5, 13]: 58.4 min | AUC(0-inf) ([5]; 11.6 mg/kg, after iv Compound 1 11.6 mg/kg, read-out: AUC0-inf): 2610 ng·h/mL | Cmax [5, 13]: 20000 ng/mL | MRT inf ([5]; 11.6 mg/kg, after iv Compound 1 11.6 mg/kg, read-out: MRT0-inf): 40.4 min | MRT last ([5]; 11.6 mg/kg, after iv Compound 1 11.6 mg/kg, read-out: MRT0-last): 33.2 min | Tmax [5, 13]: 1.5 min | AUC(0-t) [5, 14]: 6370 ng·h/mL | half-life [5, 14]: 55.8 min | AUC(0-inf) ([5]; 23.2 mg/kg, after iv Compound 1 23.2 mg/kg, read-out: AUC0-inf): 6380 ng·h/mL | Cmax [5, 14]: 29900 ng/mL | MRT inf ([5]; 23.2 mg/kg, after iv Compound 1 23.2 mg/kg, read-out: MRT0-inf): 47.6 min | MRT last ([5]; 23.2 mg/kg, after iv Compound 1 23.2 mg/kg, read-out: MRT0-last): 46.7 min | Tmax [5, 14]: 1.5 min | fold longer half-life than gemcitabine ([6]; male cynomolgus monkey plasma): ~50 fold | AUC(0-t) [6, 15]: 5950 ng·h/mL | C0 [6, 15]: 99700 ng/mL | clearance [6, 15]: 14.6 mL/min/kg | half-life [6, 15]: 45 min | AUC(0-inf) [6, 15]: 5960 ng·h/mL | MRT inf [6, 15]: 19.8 min | MRT last [6, 15]: 19.2 min | Vd [6, 15]: 0.287 L/kg | AUC(0-t) [6, 16]: 11900 ng·h/mL | C0 [6, 16]: 146000 ng/mL | clearance [6, 16]: 15 mL/min/kg | half-life [6, 16]: 59.4 min | AUC(0-inf) [6, 16]: 11900 ng·h/mL | MRT inf [6, 16]: 23.4 min | MRT last [6, 16]: 22.8 min | Vd [6, 16]: 0.349 L/kg
SMILES: COc1cc(OC)c2oc(COC(=O)Nc3ccn([C@@H]4O[C@H](CO)[C@@H](O)C4(F)F)c(=O)n3)cc2c1 [Int 1-4, (5,7-di(methoxy)benzofuran-2-yl)methyl (1-((2R,4R,5R)-3,3-difluoro-4-hydroxy-5-(hydroxymethyl)tetrahydrofuran-2-yl)-2-oxo-1,2-dihydropyrimidin-4-yl)carbamate]
